Measurements as given in patent US9493833B1, “Methods for preventing induced synthesis of proteasomes in human cells” (THE REGENTS OF THE UNIVERSITY OF CALIFORNIA, priority 2009, dated 2016).

Experiments:
PSM genes = assay: PSM gene mRNA by quantitative RT-PCR in LNCaP cells treated with MG132 and HDAC inhibitors; type: cell-based, human; conditions: 10 hrs; for MG132-mediated upregulation of representative PSM genes: MG132 1 μM + TSA 1 μM or MG132 1 μM + SAHA 1 μM; for steady-state PSM gene expression: TSA 1 μM or SAHA 5 μM alone
Method: (§1) LNCaP cells were subjected to treatment with one of MG132 (1 μM), TSA (1 μM), SAHA (5 μM), MG132 (1 μM)+TSA (1 μM), or MG132 (1 μM)+SAHA (1 μM) for 10 hrs and the RNA from these cells was used for quantitative RT-PCR to assess the mRNA levels of representative PSM genes (FIG. 5A). The values were normalized to GAPDH and the DMSO-treated sample was set to 1. A representative experiment performed in duplicates is shown. MDA-MB-231 cells were treated with different agents at the same concentrations as above (except MG132 which was used at 5 μM) for 48 hrs after which the cells were used for cell-titer glo assay to assess cell viability. Data from an experiment performed in quadruplicates is shown (FIG. 5B). LNCaP cells transfected with 8×ARE-SV40-Luc construct alone (control) or co-transfected with Flag-Nrf1 were further treated with different agents as indicated (FIG. 10). pRL-TK renilla luciferase expression construct was used as a transfection control for normalization. Sixteen hours later, the cells were harvested and used for Luciferase assay.
(§2) RNA was isolated using the RNeasy kit (Qiagen). cDNA was prepared using the Superscript III first strand synthesis kit (Invitrogen) according to the manufacturer's recommendations. Quantitative PCR (qPCR) was performed using the SYBR GreenER supermix (Invitrogen).

MDA-MB-231 cells = assay: Cell-titer glo cell viability, MG132 combined with TSA or SAHA; type: cell-based, human; conditions: MDA-MB-231, MG132 5 μM combined with TSA or SAHA, 48 hrs
Method: as §1
Cells in 96-well plates were treated with different agents as required and cell viability was assessed using the Cell-Titer Glo kit (G7572; Promega) according to the protocol recommended by the manufacturer. By employing a luminescence read-out, this kit quantifies the level of ATP which is proportional to the number of viable cells.

[1] = system: anti-oxidant response elements (8×AREs); assay: 8×ARE-SV40-Luc luciferase reporter assay in LNCaP cells; type: cell-based, human; conditions: TSA or SAHA added with MG132, 16 hours
Method: TSA and SAHA were assayed using a luciferase reporter construct. The luciferase reporter was driven by a promoter harboring multimerized anti-oxidant response elements (8×AREs) and was transfected into LNCaP cells.
as §1
(§3) Cells were transiently transfected with the firefly (promoter reporters) and renilla luciferase (pRL-TK; Promega) constructs along with effector plasmid as required. After harvesting the cells, luciferase assays were performed using the Dual Luciferase reporter assay system (E1910; Promega) according to the instructions from the manufacturer. The firefly luciferase activity was normalized to renilla luciferase activity for all experiments.

[2] = system: PSM genes (PSMA7, PSMB4, PSMB7, PSMC1, PSMC4, PSMD1, PSMD12); assay: mRNA levels of representative PSM genes by quantitative RT-PCR in LNCaP and HT-29 cells treated with proteasome inhibitors or MLN4924; type: cell-based, human; conditions: 10 hrs, normalized to GAPDH, DMSO set to 1
Method: The human prostate cancer LNCaP and colon cancer HT29 cell lines were incubated with different proteasome inhibitors (MG132, YU101, and bortezomib) or the Nedd8 pathway inhibitor MLN4924 (Soucy et al., 2009, Nature, 458, 732-736). Prostate cancer LNCaP and colon cancer HT-29 cells were treated with the indicated concentrations of proteasome inhibitors (MG132, YU101, and Bortezomib) or the Nedd8 pathway inhibitor (MLN4924) for 10 hrs, and mRNA levels of representative PSM genes were analyzed by quantitative RT-PCR (FIGS. 1A-1C). The values were normalized to GAPDH and for each cell line the DMSO treated sample was set to 1. Error bars denote SD (n=3). […] MLN4924 works by inhibiting the Nedd8-activating enzyme, the result of which is the accumulation of cullin-RING ligase (CRL) substrates (Soucy et al., 2009).
as §2

[3] = target: T1, proteasome (chymotryptic site) (Homo sapiens, UniProt P20618+P28074); assay: Proteasome activity recovery assay in HT29 cells after drug wash-out; type: cell-based; conditions: HT-29; HT29, 1 hr; MG132 2 μM, YU101 100 nM, Bortezomib 40 nM
T1 construct: endogenous in cells; host or cells: HT29 human colon cancer cells, treated intact; activity measured in freeze-thaw lysate
Method: Cells were frozen at different time points as indicated and were used for proteasome activity assays as described herein. For each time point, the results are normalized to DMSO-treated control in the case of hatched lines and to CHX-treated control in the case of solid lines. Error bars denote SD (n=3). […] The results were normalized to DMSO-treated control for each cell type. Error bars denote S.E.M. (n=2). […] The next day, the cells were treated with indicated concentrations of YU101 and the pan-caspase inhibitor Z-VAD-FMK, and further incubated for 72 hrs. The cell viability was then assessed using the CellTiter-Glo method (FIG. 12A). The results were normalized to DMSO-treated control which was set to 100% in each case. Error bars denote S.E.M. (n=2). […] The cell lysates were used for immunoblotting to detect the levels of Nrf1 (with the antibody raised against N-terminus) and cleaved caspase-3. β-actin protein levels were used as loading control. […] The cells were then washed with PBS thrice and allowed to recover in fresh medium. At definite time points, the cells were freeze-thawed in TE buffer (20 mM Tris pH 8, 5 mM EDTA) and subsequently used for measuring proteasome activity as described previously (Demo et al., 2007).

[4] = after administration; cited from earlier work
PSMA4 ARE = assay: 3×PSMA4-ARE-Luc / 3×PSMA4-mutARE-Luc luciferase assay in LNCaP cells; type: cell-based, human; conditions: LNCaP
Method: Sequence alignment of the genomic region close to the transcription start site (indicated by +1) of the PSMB6 gene in mouse and human. The putative ARE sequences and the start codon are marked as shown (FIG. 6). WT and Nrf1^−/− MEFs were transfected with the PSMB6-Luc construct and 24 hrs post-transfection, the cells were treated with the indicated concentration of MG132 for 12 hrs after which luciferase assays were performed as described herein (FIG. 7). Error bars denote SD (n=3). […] LNCaP cells were transiently transfected with the indicated reporter constructs along with either a vector control or Flag-Nrf1 expression construct. Forty-eight hours (hrs) after transfection, the cells were further incubated with the indicated concentration of MG132 for 12 hrs after which luciferase assays were performed as described herein (FIG. 9). Error bars denote SD (n=3).
as §3

Molecule	MG132-mediated upregulation of representative PSM genes (PSM genes)	steady-state PSM gene expression (PSM genes)	apoptosis / cell viability in combination with MG132 (MDA-MB-231 cells)	luciferase activity (8×ARE reporter) in combination with MG132 [1]	clearance from the patients' blood [4]	other results
O=C(CCCCCCC(=O)Nc1ccccc1)NO [SAHA, suberoylanilide hydroxamic acid]	reproducibly inhibited the MG132-mediated upregulation of representative PSM genes	little effect on steady-state PSM gene expression	enhanced apoptosis (decreased viability)	basal levels of luciferase activity were observed		
CC(/C=C/C(=O)NO)=C\[C@@H](C)C(=O)c1ccc(N(C)C)cc1 [TSA, trichostatin A]	reproducibly inhibited the MG132-mediated upregulation of representative PSM genes	little effect on steady-state PSM gene expression	enhanced apoptosis (decreased viability)	basal levels of luciferase activity were observed		
CC(C)C[C@H](NC(=O)[C@H](Cc1ccccc1)NC(=O)c1cnccn1)B(O)O [bortezomib]					rapidly cleared from the patients' blood within the first hour	mRNA levels of PSM genes [2]: robustly induce mRNA levels of several PSM genes; inhibition at 0.04 µM [3]: 80 to 90%
CC(C)C[C@H](NC(=O)[C@H](CCc1ccccc1)NC(=O)CN1CCOCC1)C(=O)N[C@@H](Cc1ccccc1)C(=O)N[C@@H](CC(C)C)C(=O)[C@@]1(C)CO1 [carfilzomib]					rapidly cleared from the patients' blood within the first hour	
Flag-Nrf1: human Nrf1 with N-terminal 3×FLAG tag, expressed from pMSCV-hyg retroviral vector (protein, UniProt Q14494 1-772, looked up, N-terminal 3xFLAG tag, human Nrf1 with N-terminal 3×FLAG tag, expressed from pMSCV-hyg retroviral vector) Endoplasmic reticulum …: MLSLKKYLTEGLLQFTILLSLIGVRVDVDTYLTSQLPPLREIILGPSSAYTQTQFHNLRNTLDGYGIHPKSIDLDNYFTARRLLSQVRALDRFQVPTTEVNAWLVHRDPEGSVSGSQPNSGLALESSSGLQDVTGPDNGVRESETEQGFGEDLEDLGAVAPPVSGDLTKEDIDLIDILWRQDIDLGAGREVFDYSHRQKEQDVEKELRDGGEQDTWAGEGAEALARNLLVDGETGESFPAQVPSGEDQTALSLEECLRLLEATCPFGENAEFPADISSITEAVPSESEPPALQNNLLSPLLTGTESPFDLEQQWQDLMSIMEMQAMEVNTSASEILYSAPPGDPLSTNYSLAPNTPINQNVSLHQASLGGCSQDFLLFSPEVESLPVASSSTLLPLAPSNSTSLNSTFGSTNLTGLFFPPQLNGTANDTAGPELPDPLGGLLDEAMLDEISLMDLAIEEGFNPVQASQLEEEFDSDSGLSLDSSHSPSSLSSSEGSSSSSSSSSSSSSSASSSASSSFSEEGAVGYSSDSETLDLEEAEGAVGYQPEYSKFCRMSYQDPAQLSCLPYLEHVGHNHTYNMAPSALDSADLPPPSALKKGSKEKQADFLDKQMSRDEHRARAMKIPFTNDKIINLPVEEFNELLSKYQLSEAQLSLIRDIRRRGKNKMAAQNCRKRKLDTILNLERDVEDLQRDKARLLREKVEFLRSLRQMKQKVQSLYQEVFGRLRDENGRPYSPSQYALQYAGDGSVLLIPRTMADQQARRQERKPKDRRK						luciferase activity (3×PSMA4-mutARE-Luc, AREs mutated) (PSMA4 ARE; mutated AREs): neither MG132 nor overexpressed Flag-Nrf1 induced the synthetic promoter construct; luciferase activity (3×PSMA4-ARE-Luc) (PSMA4 ARE; versus DMSO-treated / vector control, MG132 12 hrs): activated this synthetic promoter construct
